{
  "source": "patent US20230025286A1",
  "about": "“PHARMACEUTICAL COMPOSITION COMPRISING ELTROMBOPAG BIS(MONOETHANOLAMINE)” (SYNTHON B.V., priority 2019, published 2023)",
  "origin": "cited, not measured here",
  "key": {"[1]": {"details": "background statement, no method or value given"}, "[2]": {"details": "background statement, no method or value given", "remark": "listed apart in the source"}},
  "data": [
    {"smiles": "CC1=NN(c2ccc(C)c(C)c2)C(=O)/C1=N\\Nc1cccc(-c2cccc(C(=O)O)c2)c1O.NCCO.NCCO", "note": "[Eltrombopag bis(monoethanolamine), 3′-{(2Z)-2-[1-(3,4-dimethylphenyl)-3-methyl-5-oxo-1,5-dihydro-4H-pyrazol-4-ylidene]hydrazino}-2′-hydroxy-3-biphenylcarboxylic acid bis(monoethanolamine)]", "values": [
      {"measurement": "solubility", "setting": "[1]", "value": "low"},
      {"measurement": "permeability", "setting": "[2]", "value": "medium"}
    ]}
  ]
}
